The text below walks through data of patent publication US11628216B2 (priority 2013, dated 2023).

Each structure is given as a SMILES string. Where two headings read alike, the source gives them in different places.

Series [1] has as its system antibodies of Example 3 (antibody of the invention against 6-acetylmorphine). The series is classed as binding. The settings on record: 6-AM Conc. 10 ng/mL. Here is the method:
Cross reactivity to heroin metabolites and other common structurally related opiates may be evaluated using the antibodies described herein. Immunoassays are constructed using the antibodies of Example 3, configured to operate in a competitive mode immunoassay format, in which the analogue compounds of the invention are compared with other related compounds for cross reaction against 6-acetylmorphine. […] Aliquots of labeled 6-acetylmorphine at 10 ng/mL are incubated in the presence of competing compound with the antibody of the invention, and the level of interaction of the competitor compound determined as a reduction in measured signal compared with the situation where only 6-acetylmorphine is present.
Cross reactivity to heroin metabolites and other common structurally related opiates were evaluated using the antibodies as described with reference to Example 3. […] Aliquots of labeled 6-acetylmorphine at 10 ng/mL were incubated in the presence of competing compound with the antibody of the invention, and the level of interaction of the competitor compound determined as a reduction in measured signal compared with the situation where only 6-acetylmorphine was present.

The conditions of series [2]: after last heroin use; cited from earlier work.
Series [3] deals with selected monoclonal antibody against 6-AM. Briefly: competitive assay for 6-AM developed with a selected antibody. Type of series: binding. The note with it: at clinically relevant concentrations. The method, then: The bacterial cells from each antibody library are streaked on agar to generate colonies. The colonies, coding for monoclonal antibodies, are used to inoculate culture medium in individual wells in 96-well plates. The liquid cultures are grown overnight and used to generate frozen cell stocks. The frozen cell stocks are used to generate duplicate 96-well plate cultures, followed by expression and purification of the monoclonal antibodies in soluble form in microgram quantities.
The bacterial cells from each antibody library were streaked on agar to generate colonies. The colonies, coding for monoclonal antibodies, were used to inoculate culture medium in individual wells in 96-well plates. The liquid cultures were grown overnight and used to generate frozen cell stocks. The frozen cell stocks were used to generate duplicate 96-well plate cultures, followed by expression and purification of the monoclonal antibodies in soluble form in microgram quantities.

With `CC(=O)O[C@H]1C=CC2[C@H]3Cc4ccc(O)c5c4[C@@]2(CCN3C)[C@H]1O5` (stereo partly drawn) [6-Acetylmorphine], the “Cross-Reactivity (%)” value in series [1] (Analyte Conc. 10 ng/mL) was 100%. The “time 6-AM remains in the urine” value in series [2] is reported as “no more than 24 hours”.
Consider `CN1CC[C@]23c4c5ccc(O)c4O[C@H]2[C@@H](O[C@@H]2O[C@H](C(=O)O)[C@@H](O)[C@H](O)[C@H]2O)C=C[C@H]3[C@H]1C5` [Morphine 6-D-glucuronide], for which the crossreactivity result in series [3] is “no crossreactivity”.
As for `CC(=O)Oc1ccc2c3c1O[C@H]1[C@@H](OC(C)=O)C=C[C@H]4[C@@H](C2)N(C)CC[C@@]341` [Heroin, Diacetylmorphine], the “Cross-Reactivity (%)” value in series [1] (Analyte Conc. 750 ng/mL) is on record as 1.3%.
As to `CN1CC[C@]23c4c5ccc(O)c4O[C@H]2[C@@H](O)C=C[C@H]3[C@H]1C5` [Morphine], the crossreactivity result in series [3] was “no crossreactivity”.
Take `CN1CC[C@]23c4c5ccc(O[C@@H]6O[C@H](C(=O)O)[C@@H](O)[C@H](O)[C@H]6O)c4O[C@H]2[C@@H](O)C=C[C@H]3[C@H]1C5` [Morphine 3-D-glucuronide]: the crossreactivity entry in series [3] is on record as “no crossreactivity”.
